In US11680043B2 (priority 2021, dated 2023):
Where “and” joins values, the source holds several entries; their conditions need not be identical. Equal values may be shown once. Where a name gives a salt, the structure may show the parent alone.

Experiment: Solubility of psilocin salts in saline
Conditions: for XRPD of Residue: solid residue after 5 hrs in saline (Table 9)
[1] = Saline, updated summary (Table 10)
[2] = pH of saturated solution in saline (Table 9)

| SMILES | pH at 5 hrs (Saline, updated summary (Table 10), hydrochloride) | pH at 5 hrs (pH of saturated solution in saline (Table 9), hydrochloride) | pH at 5 hrs [1] | pH at 5 hrs [2] | XRPD of Residue | Solubility in Saline (Table 4 summary) [µg/mL] |
| --- | --- | --- | --- | --- | --- | --- |
| CN(C)CCc1c[nH]c2cccc(O)c12 [Psilocin hydrochloride HCl Pattern 1, Psilocin hydrochloride] | 4.0 and 5.4 | 6.0 and 6.1 |  |  |  |  |
| CN(C)CCc1c[nH]c2cccc(O)c12.O=C(O)c1ccccc1O [Psilocin salicylate SAL Pattern 1, Psilocin salicylate] |  |  | 4.2 | 4.2 | SAL Pattern 1 |  |
| CN(C)CCc1c[nH]c2cccc(O)c12.O=S(=O)(O)c1cccc2c(S(=O)(=O)O)cccc12 [Psilocin 1,5-napthalenedisulfonate NAP Pattern 1] |  |  | 2.0 | 2.0 | NAP Pattern 1 |  |
| CN(C)CCc1c[nH]c2cccc(O)c12.O=C(O)c1ccccc1 [Psilocin benzoate BEN Pattern 1, Psilocin benzoate] |  |  | 6.8 and 6.9 | 6.8 and 6.9 | BEN Pattern 1 | 5000 |
| CN(C)CCc1c[nH]c2cccc(O)c12 [Psilocin free base, Psilocin, reference compound] |  |  | 9.8 and 9.9 | 9.8 and 9.9 | Freeform Pattern 1 |  |
